Key:
[1] = test system: bone marrow cells; test: DAF-based hemoglobin colorimetry assay on cultured bone marrow cells from phenylhydrazine-induced anemic mice; type: cell-based, C57BL/6JNarl mice; conditions: about 0.1 to about 20 μg/ml, 4 days, with 50 mU/ml EPO; **P<0.01 versus control (0 μg/ml); FIG. 1
Experimental: C57BL/6JNarl mice, 8-10 weeks of age, were purchased from the National Laboratory Animal Center (NLAC, Taiwan). Acute hemolytic anemia was induced by a single intraperitoneal (i.p.) injection of phenylhydrazine hydrochloride (Sigma-Aldrich) at a dose of 100 mg/kg in a phosphate buffered saline (PBS). Six days after the injection, bone marrow cells were isolated from mice and cultured according to the procedure described in Worthington et al., (1985) and Rosenthal et al. (1987) with minor modifications. […]
In the next day, different concentrations of compound A (0, 0.1, 0.5, 2.5, 12.5 and 20 μg/ml) were added to the cells, respectively, and incubated for 4 days. The relative levels of hemoglobin were determined using DAF-based hemoglobin colorimetry assay according to Kaiho (1985) and Worthington (1985) with minor modifications. […] The absorbance at 610 nm was measured by Victor 2 1420 Multilable Counter (Wallac, PerkinElmer). Results were expressed as relative index±S.E. (n=6). Statistical significance was evaluated by Student's t test (**P<0.01 versus control group (0 μg/ml)).

[2] = test system: cisplatin-induced acute renal failure animal model; test: cisplatin-induced acute renal failure animal model: red blood cell count and blood urea nitrogen; type: in vivo, C57BL/6JNarl mice
Experimental: The effects of Compound A treatment on cisplatin-induced acute renal failure animal model were investigated. C57BL/6JNarl mice (8-week-old) were purchased from the National Laboratory Animal Center (NLAC, Taiwan). Cisplatin (Sigma-Aldrich) was dissolved in normal saline (0.9% (w/v) sodium chloride, Sigma-Aldrich) at a concentration of 1 mg/ml, and injected into mice intraperitoneally (i.p.) according to the following schedule: day 1, 7 mg/kg; day 5, 6 mg/kg; and day 9, 6 mg/kg. For cisplatin-untreated normal mice group, normal saline injections of corresponding volumes were given i.p. in parallel. At day 13, serum samples were collected and blood urea nitrogen (BUN) contents were assayed. Cisplatin-injected mice with BUN levels more than 100 mg/dl and the cisplatin-untreated normal mice were further divided into 5 groups, 6 mice per group, for feeding with Compound A for 2 weeks: (1) Normal group: Mice were injected with normal saline and followed by feeding with a standard diet; (2) Control group: Mice were injected with cisplatin and followed by feeding with a standard diet; (3) Pomu 10 mg/kg/day group: Mice were injected with cisplatin and followed by feeding with Compound A at the dose of 10 mg/kg/day; (4) Pomu 30 mg/kg/day group: Mice were injected with cisplatin and followed by Compound A at the dose of 30 mg/kg/day; (5) Pomu 90 mg/kg/day group: Mice were injected with cisplatin and followed by Compound A treatment at the dose of 90 mg/kg/day. Blood samples were collected from the retro-orbital sinus of mice at day 0, 5, 10, 13, 18, 23 and 28. Red blood cell (RBC) concentrations were determined by complete blood cell count using Sysmex® Kx-21 hematology analyzer. Blood urea nitrogen (BUN) levels were determined by urease GLDH method (Urea FS, DiaSys). Results were expressed as mean±S.E. (n=5˜6). Statistical significance was evaluated by Student's t test (##P<0.01 versus normal group and **P<0.01 versus control group). […] The horizontal arrow in FIGS. 7 and 8 represents Compound A treatment (mg/Kg/day). […] The results were in agreement with the ability of the Compound A in enhancing erythropoiesis.

[3] = test system: erythropoietin (Epo); test: Epo expression in kidney slices (RT-PCR); type: cell-based, mouse; conditions: 0.6-100 μg/ml, 16 hr, versus 0 μg/ml, FIG. 3
Experimental: C57BL/6JNarl mice, 8-10 weeks of age, were purchased from the National Laboratory Animal Center (NLAC, Taiwan). The kidney slices of mice were prepared as previously described with modifications (Parrish et al., 1995, Obatomi et al., 1998 and De Kanter et al., 1999). Briefly, mice were sacrificed by cervical dislocation and the kidneys were excised and immediately kept in gassed (95% O2 and 5% CO2) ice-cold sterile Krebs-HEPES buffer (pH 7.4) containing 20 mM HEPES (USB), 128 mM sodium chloride (Sigma-Aldrich), 2.5 mM potassium chloride (Sigma-Aldrich), 2.7 mM calcium chloride (Sigma-Aldrich), 1 mM magnesium chloride (Sigma-Aldrich) and 16 mM D-glucose (Sigma-Aldrich). […]
Kidney slices were preincubated in a 24-well plate (Falcon) containing 1.0 ml/well of gassed (95% O2, 5% CO2) fresh media (DMEM/F12 (Gibco/Invitrogen) containing 15 mM HEPES (USB), 20 mM sodium bicarbonate (Sigma-Aldrich)) and 5% (v/v) FBS (Gibco) for 90˜120 min at 37° C. in a 95% O2: 5% CO2 atmosphere chamber. […] The reverse-transcribed cDNA samples were analyzed by polymerase chain reaction (PCR) using ABI GeneAmp™ system 2700 (Applied Biosystems) with primers targeting toward mouse β-actin (SEQ ID NOs: 1 and 2) and erythropoietin (Epo) (SEQ ID NOs: 3 and 4) (Table 1). Results were compared with control group (0 μg/ml) and expressed as relative index.

Q: Which “hemoglobin formation (relative index)” value [1] does the source give for `OC[C@H]1O[C@@H](Oc2c(O)cc(O)cc2/C=C/c2ccc(O)cc2)[C@H](O)[C@@H](O)[C@@H]1O` [Compound A, 2,3,5,4′-tetrahydroxystilbene 2-O-β-D-glucopyranoside] here?
A: significantly enhanced hemoglobin formation

Q: And the “number of red blood cells (RBCs)” value ([2]; 30~90 mg/kg/day in feed for 2 weeks, time course, FIG. 5)?
A: increased the number of red blood cells

Q: And the “serum BUN levels” value ([2]; 30~90 mg/kg/day in feed for 2 weeks, time course, FIG. 6)?
A: decreased serum BUN levels

Q: And the “number of RBCs at day 23” value ([2]; 30~90 mg/kg/day, day 23, versus control group, FIG. 7)?
A: significantly increased the number of RBCs

Q: And the “serum BUN levels at day 23” value ([2]; 30~90 mg/kg/day, day 23, versus control group, FIG. 8)?
A: decreasing serum BUN levels

Q: What about the “expression of Epo in kidney tissue (relative index)” value [3] of the same molecule?
A: increased the expression of Epo in kidney tissue

— US9980979B2, “Compounds and methods for enhancing erythropoiesis” (NATIONAL YANG-MING UNIVERSITY, priority 2008, dated 2018)
